In patent US20250281402A1, “COMPOSITIONS FOR LOCAL THERAPY DELIVERY TO BRAIN TUMORS AND METHODS” (Massachusetts Institute of Technology, priority 2022, published 2025):
Read-outs that look alike come from different tables or passages of the source.

Experiments:
[1] = In vitro drug release from hydrogels; assay type: physicochemical
Procedure: Doxorubin release profiles of the foregoing compositions were tested.
Also compared was the cumulative release percentage of doxil and doxorubicin.
The in vitro release of acriflavine also was tested. An injectable hydrogel formulation (75% oxidized dextran, 12.5% w/v; PAMAM dendrimer, 15% w/v, pH 9.2) was prepared with four different loading concentrations (0.625 mg, 1.25 mg, 2.5 mg, and 5 mg, each of which had been previously injected locally in the brain).

[2] = system: GBM spheroids; assay: Elimination of GBM spheroids in vitro; assay type: cell-based; conditions: compared with other tested chemotherapies
Excerpt: The other tested chemotherapies, however, may be used in the methods and compositions described herein.

[3] = system: GBM cells; assay: Calreticulin surface expression and HMGB1 excretion of GBM cells
[4] = system: GL261; assay: Potency (cell viability v. concentration) against GBM cell line GL261; assay type: cell-based
Procedure: (§1) The potencies of several therapies again GBM cells lines were measured.
(§2) FIG. 3 depicts a plot of cell viability v. concentration of each of the therapies listed in the foregoing table.

[5] = system: CT-2A; assay: Potency (cell viability v. concentration) against GBM cell line CT-2A; assay type: cell-based
Procedure: as §1, §2

[6] = Mus musculus, GL261, read-out: IC50 in GL261

Compound | IC50 [4, 6] [µM] | IC50 ([5]; read-out: IC50 in CT-2A) [µM] | further results
COc1cccc2c1C(=O)c1c(O)c3c(c(O)c1C2=O)C[C@@](O)(C(=O)CO)C[C@@H]3O[C@H]1C[C@H](N)[C@H](O)[C@H](C)O1 [Doxorubicin] | 0.8 | 0.1 | cumulative percentage released, doxorubicin compared with doxil ([1]; over 200 hours, FIG. 11): greater cumulative percentage; elimination of GBM spheroids [2]: more potently eliminated GBM spheroids in vitro than other tested chemotherapies; surface expression of calreticulin ([3]; FIG. 42, FIG. 43): increase the surface expression of calreticulin; HMGB1 excretion ([3]; at relevant concentrations): did not impact HMGB1 excretion at relevant concentrations; IC50 ([4]; Mus musculus, GL261, comparative testing doxil v. doxorubicin, FIG. 20A/20B, read-out: potency from cell viabilities, GL261 (quantity not named)): 0.83 µM; IC50 ([5]; comparative testing doxil v. doxorubicin, FIG. 20A/20B, read-out: potency from cell viabilities, CT-2A (quantity not named)): 0.17 µM
O=NN(CCCl)C(=O)NCCCl [Carmustine (BCNU), Carmustine] | 146 | 156 | –
Cn1nnc2c(C(N)=O)ncn2c1=O [Temozolomide] | > 750 | > 750 | –
Acriflavine | – | 7.3 | activity upon release ([1]; released from hydrogel): retained its activity upon release; IC50 ([4]; read-out: IC50 in GL261): 2.7 µM
CCc1c2c(nc3ccc(OC(=O)N4CCC(N5CCCCC5)CC4)cc13)-c1cc3c(c(=O)n1C2)COC(=O)[C@]3(O)CC [Irinotecan] | 107 | 150 | –
